# Measured values as given in US20050228016A1, “TETRAHYDROQUINOLINES FOR MODULATING THE EXPRESSION OF EXOGENOUS GENES VIA AN ECDYSONE RECEPTOR COMPLEX” (priority 2002, published 2005).
# Target: T1, Gal4DBD/AaEcR (DEF) (Aedes aegypti, UniProt P49880)
# T1 construct: The wildtype D, E, and F domains from mosquito Aedes aegypti EcR; expressed in transfected cells; host or cells: 3T3 cells
# Test: cell-based
# Assay type: cell-based
# Conditions: 33 μM; 3T3 cells; 48 h; average of two wells
# Outline: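 Single-dose ligand testing at 33 μM, applied in serum medium after 4 h transfection. Host was 3T3 cells carrying Gal4DBD/AaEcR (DEF) plus a 5× GAL4 RE-driven firefly luciferase reporter (pFRLuc).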
# T1 sequence (P28704 286-520 A311G/G315S/G445S/I449V): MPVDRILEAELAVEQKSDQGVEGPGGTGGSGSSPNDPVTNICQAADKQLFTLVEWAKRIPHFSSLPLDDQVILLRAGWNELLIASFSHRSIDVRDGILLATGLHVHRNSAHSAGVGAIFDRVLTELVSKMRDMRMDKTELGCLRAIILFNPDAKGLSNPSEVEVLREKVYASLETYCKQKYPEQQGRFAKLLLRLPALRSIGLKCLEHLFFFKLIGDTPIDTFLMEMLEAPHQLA
# T1 sequence (P49880 405-776): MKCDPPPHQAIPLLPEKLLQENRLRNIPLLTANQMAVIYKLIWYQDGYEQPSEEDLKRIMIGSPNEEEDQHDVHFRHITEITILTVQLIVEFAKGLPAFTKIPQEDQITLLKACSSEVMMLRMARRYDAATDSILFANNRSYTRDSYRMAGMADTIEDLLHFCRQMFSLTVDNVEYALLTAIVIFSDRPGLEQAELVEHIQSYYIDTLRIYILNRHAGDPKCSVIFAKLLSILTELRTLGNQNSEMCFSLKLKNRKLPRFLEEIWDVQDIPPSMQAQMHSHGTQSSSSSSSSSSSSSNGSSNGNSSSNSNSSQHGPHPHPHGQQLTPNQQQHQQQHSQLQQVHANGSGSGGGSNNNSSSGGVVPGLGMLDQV
row,Compound,"Fold Induction Average, AA_3T3V1 Assay 33 μM"
1,CC1CC(Nc2ccc(F)cc2)c2cc(F)ccc2N1C(=O)c1ccccc1F (centres unmarked) [Compound I-55],78 fold
2,Cc1ccccc1C(=O)N1c2ccc(F)cc2C(Nc2ccc(F)cc2)CC1C (centres unmarked) [Compound I-56],158 fold
3,COc1ccccc1C(=O)N1c2ccc(F)cc2C(Nc2ccc(F)cc2)CC1C (centres unmarked) [Compound I-57],4 fold
4,CC1CC(Nc2ccccc2)c2ccccc2N1C(=O)c1ccc(Cl)cc1 (centres unmarked) [Compound I-61],216 fold
5,CCc1ccc(C(=O)N2c3ccccc3C(Nc3ccccc3)CC2C)cc1 (centres unmarked) [Compound I-62],744 fold
6,Cc1ccc(NC2CC(C)N(C(=O)c3ccc(Cl)cc3)c3ccc(C)cc32)cc1 (centres unmarked) [Compound I-63],812 fold
7,COc1ccc(C(=O)N2c3ccccc3C(Nc3ccccc3)CC2C)cc1 (centres unmarked) [Compound I-95],11 fold
8,Cc1ccc(C(=O)N2c3ccccc3C(Nc3ccccc3)CC2C)cc1 (centres unmarked) [Compound I-96],121 fold
9,CC1CC(Nc2ccccc2)c2ccccc2N1C(=O)c1ccccc1 (centres unmarked) [Compound I-97],37 fold
10,COc1ccc(C(=O)N2c3ccc(F)cc3C(Nc3ccc(F)cc3)CC2C)cc1 (centres unmarked) [Compound I-101],561 fold
11,Cc1ccc(C(=O)N2c3ccc(F)cc3C(Nc3ccc(F)cc3)CC2C)cc1 (centres unmarked) [Compound I-102],601 fold
12,CC1CC(Nc2ccccc2)c2ccccc2N1C(=O)c1ccc(Cl)nc1 (centres unmarked) [Compound I-103],341 fold
13,CC1CC(Nc2ccccc2)c2ccccc2N1C(=O)c1ccc(Cl)c(F)c1 (centres unmarked) [Compound I-105],369 fold
14,CC1CC(Nc2ccccc2)c2ccccc2N1C(=O)c1ccnc(Cl)c1 (centres unmarked) [Compound I-106],1053 fold
15,CCc1c(OC)cccc1C(=O)N1c2ccccc2C(Nc2ccccc2)CC1C (centres unmarked) [Compound I-107],636 fold
16,Cc1ccc(NC2CC(C)N(C(=O)c3ccno3)c3ccc(C)cc32)cc1 (centres unmarked) [Compound I-109],33 fold

row,Compound,"Fold Induction Average, AA_3T3V1 Assay 33 μM"
1,Cc1ccc(NC2CC(C)N(C(=O)c3ccc(Cl)c(F)c3)c3ccc(C)cc32)cc1 (centres unmarked) [Compound I-110],782 fold
2,Cc1ccc(NC2CC(C)N(C(=O)c3ccnc(Cl)c3)c3ccc(C)cc32)cc1 (centres unmarked) [Compound I-111],527 fold
3,CCCC(=O)N1c2ccccc2C(N(C(=O)c2ccccc2)c2ccc(F)cc2)CC1C (centres unmarked) [Compound I-126],1 fold
4,COc1cccc(NC2CC(C)N(C(=O)c3ccccc3)c3ccccc32)c1 (centres unmarked) [Compound I-137],64 fold
5,COc1cccc(C(=O)N(c2ccccc2)C2CC(C)N(C(C)=O)c3ccccc32)c1 (centres unmarked) [Compound I-142],1 fold
6,Cc1ccc(C(=O)N2c3ccccc3C(N(C(=O)c3ccc(F)cc3)c3ccccc3)CC2C)cc1 (centres unmarked) [Compound I-143],27 fold
7,CC1CC(Nc2ccccc2)c2ccccc2N1C(=O)COc1ccc(F)cc1 (centres unmarked) [Compound I-159],12 fold
8,CC1CC(Nc2ccccc2)c2ccccc2N1C(=O)c1ccc(Cl)c(Cl)c1 (centres unmarked) [Compound I-165],1 fold
9,CC1CC(Nc2ccccc2)c2ccccc2N1C(=O)c1ccc(I)cc1 (centres unmarked) [Compound I-168],401 fold
10,CC1CC(Nc2ccccc2)c2ccccc2N1C(=O)CCC1CCCCC1 (centres unmarked) [Compound I-170],2 fold
11,CCOC(=O)C(=O)N1c2ccccc2C(Nc2ccccc2)CC1C (centres unmarked) [Compound I-171],1 fold
12,CC1CC(Nc2ccccc2)c2ccccc2N1C(=O)c1ccc(NS(C)(=O)=O)cc1 (centres unmarked) [Compound I-175],1 fold
13,CC(C)C(=O)N1c2ccccc2C(N(C(=O)c2ccccc2)c2ccc([N+](=O)[O-])cc2)CC1C (centres unmarked) [Compound I-178],1 fold
14,CCC(=O)N1c2ccccc2C(N(C(=O)c2ccc([N+](=O)[O-])cc2)c2ccccc2)CC1C (centres unmarked) [Compound I-183],1 fold
15,Cc1ccc(C(=O)N2c3ccc(F)cc3C(N(C(=O)c3ccc(C)c(F)c3)c3ccc(F)cc3)CC2C)cc1F (centres unmarked) [Compound I-197],686 fold

# Target: T2, Bombyx mori EcR (VP16-BmEcR, CVBE) (Bombyx mori, UniProt P49881)
# T2 construct: expressed in transfected cells
# T2 sequence (P49881 86-606): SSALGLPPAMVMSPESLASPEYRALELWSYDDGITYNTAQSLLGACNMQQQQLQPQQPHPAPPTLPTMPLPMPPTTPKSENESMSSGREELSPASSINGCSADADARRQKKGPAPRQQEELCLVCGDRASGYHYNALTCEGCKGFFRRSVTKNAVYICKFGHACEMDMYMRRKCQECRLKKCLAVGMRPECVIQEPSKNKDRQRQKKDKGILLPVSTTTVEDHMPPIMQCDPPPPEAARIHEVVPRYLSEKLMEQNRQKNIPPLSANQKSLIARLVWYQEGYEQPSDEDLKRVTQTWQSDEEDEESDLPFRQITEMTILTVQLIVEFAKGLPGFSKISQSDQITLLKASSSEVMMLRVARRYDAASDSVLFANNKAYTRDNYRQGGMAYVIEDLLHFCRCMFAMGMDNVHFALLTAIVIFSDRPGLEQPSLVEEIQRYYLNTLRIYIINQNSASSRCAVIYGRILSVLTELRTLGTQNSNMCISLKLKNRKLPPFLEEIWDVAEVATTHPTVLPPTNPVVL
# Test: Z3 assay (HEK-293 clone Z3 with CVBE and 6x EcRE LacZ, β-galactosidase reporter)
# Assay type: cell-based
# Conditions: 48 h, average of two wells
# Text: Dr. F. Gage provided a population of stably transformed cells containing CVBE and 6× EcRE as described in (Suhr et. al. 1998). Human 293 kidney cells, also referred to as HEK-293 cells, were sequentially infected with retroviral vectors encoding first the switch construct CVBE, and subsequently the reporter construct 6× EcRE Lac Z. The switch construct contained the coding sequence for amino acids 26-546 from Bombyx nori EcR (BE) (Iatrou) inserted in frame and downstream of the VP16 transactivation domain (VBE). A synthetic ATG start codon was placed under the control of cytomegalovirus (CVBE) immediate early promoter and flanked by long terminal repeats (LTR). The reporter-construct contained six copies of the ecdysone response element (EcRE) binding site placed upstream of LacZ and flanked on both sides with LTR sequences (6× EcRE).
# Dilution cloning was used to isolate individual clones. Clones were selected using 450 μg/ml G418 and 100 ng/ml puromycin. Individual clones were evaluated based on their response in the presence and absence of test ligands.
# Human 293 kidney cells stably transformed with CVBE and 6× EcRE lack were maintained in Minimum Essential Medium (Mediates, 10-010-CV) containing 10%.FBS (Life Technologies, 26140-087),[…] G418 (Mediates, 30-234-CR), and […] (Sigma, P-7255), at 37° C. in an atmosphere containing 5% CO2 and were subculture when they reached 75% confluence.
# Z3 cells were seeded into 96-well tissue culture plates at a concentration of 2.5×10^3 cells per well and incubated at 37° C. in 5% CO2 for twenty-four hours. Stock solutions of ligands were prepared in DMSO. Ligand stock solutions were diluted 100.fold in media and 50 μL of this diluted ligand solution (33 μM) was added to cells.
# Reporter gene expression was evaluated 48 hours after treatment of cells, β-galactosidase activity was measured using Gal Screen™ bioluminescent reporter gene assay system from Tropix (GSY1000).
# Flanking both constructs are long terminal repeats, G418 and puromycin are selectable markers, CMV is the cytomegalovirus promoter, VBE is coding sequence for amino acids 26-546 from Bombyx mori EcR inserted downstream of the VP16 transactivation domain, 6× EcRE is six copies of the ecdysone response element, lacZ encodes for the reporter enzyme β-galactosidase.
row,Compound,"Fold Induction Average, Z3V1 Assay 33 μM"
1,CC1CC(Nc2ccc(F)cc2)c2cc(F)ccc2N1C(=O)c1ccccc1F (centres unmarked) [Compound I-55],10 fold
2,Cc1ccccc1C(=O)N1c2ccc(F)cc2C(Nc2ccc(F)cc2)CC1C (centres unmarked) [Compound I-56],8 fold
3,COc1ccccc1C(=O)N1c2ccc(F)cc2C(Nc2ccc(F)cc2)CC1C (centres unmarked) [Compound I-57],1 fold
4,CC1CC(Nc2ccccc2)c2ccccc2N1C(=O)c1ccc(Cl)cc1 (centres unmarked) [Compound I-61],4 fold
5,CCc1ccc(C(=O)N2c3ccccc3C(Nc3ccccc3)CC2C)cc1 (centres unmarked) [Compound I-62],43 fold
6,Cc1ccc(NC2CC(C)N(C(=O)c3ccc(Cl)cc3)c3ccc(C)cc32)cc1 (centres unmarked) [Compound I-63],1 fold
7,COc1ccc(C(=O)N2c3ccccc3C(Nc3ccccc3)CC2C)cc1 (centres unmarked) [Compound I-95],1 fold
8,Cc1ccc(C(=O)N2c3ccccc3C(Nc3ccccc3)CC2C)cc1 (centres unmarked) [Compound I-96],1 fold
9,CC1CC(Nc2ccccc2)c2ccccc2N1C(=O)c1ccccc1 (centres unmarked) [Compound I-97],1 fold
10,COc1ccc(C(=O)N2c3ccc(F)cc3C(Nc3ccc(F)cc3)CC2C)cc1 (centres unmarked) [Compound I-101],2 fold
11,Cc1ccc(C(=O)N2c3ccc(F)cc3C(Nc3ccc(F)cc3)CC2C)cc1 (centres unmarked) [Compound I-102],3 fold
12,CC1CC(Nc2ccccc2)c2ccccc2N1C(=O)c1ccc(Cl)nc1 (centres unmarked) [Compound I-103],4 fold
13,CC1CC(Nc2ccccc2)c2ccccc2N1C(=O)c1ccc(Cl)c(F)c1 (centres unmarked) [Compound I-105],30 fold
14,CC1CC(Nc2ccccc2)c2ccccc2N1C(=O)c1ccnc(Cl)c1 (centres unmarked) [Compound I-106],83 fold
15,CCc1c(OC)cccc1C(=O)N1c2ccccc2C(Nc2ccccc2)CC1C (centres unmarked) [Compound I-107],6 fold
16,Cc1ccc(NC2CC(C)N(C(=O)c3ccno3)c3ccc(C)cc32)cc1 (centres unmarked) [Compound I-109],1 fold

row,Compound,"Fold Induction Average, Z3V1 Assay 33 μM"
1,Cc1ccc(NC2CC(C)N(C(=O)c3ccc(Cl)c(F)c3)c3ccc(C)cc32)cc1 (centres unmarked) [Compound I-110],2 fold
2,Cc1ccc(NC2CC(C)N(C(=O)c3ccnc(Cl)c3)c3ccc(C)cc32)cc1 (centres unmarked) [Compound I-111],16 fold
3,CCCC(=O)N1c2ccccc2C(N(C(=O)c2ccccc2)c2ccc(F)cc2)CC1C (centres unmarked) [Compound I-126],1 fold
4,COc1cccc(NC2CC(C)N(C(=O)c3ccccc3)c3ccccc32)c1 (centres unmarked) [Compound I-137],1 fold
5,COc1cccc(C(=O)N(c2ccccc2)C2CC(C)N(C(C)=O)c3ccccc32)c1 (centres unmarked) [Compound I-142],1 fold
6,Cc1ccc(C(=O)N2c3ccccc3C(N(C(=O)c3ccc(F)cc3)c3ccccc3)CC2C)cc1 (centres unmarked) [Compound I-143],1 fold
7,CC1CC(Nc2ccccc2)c2ccccc2N1C(=O)COc1ccc(F)cc1 (centres unmarked) [Compound I-159],1 fold
8,CC1CC(Nc2ccccc2)c2ccccc2N1C(=O)c1ccc(Cl)c(Cl)c1 (centres unmarked) [Compound I-165],1 fold
9,CC1CC(Nc2ccccc2)c2ccccc2N1C(=O)c1ccc(I)cc1 (centres unmarked) [Compound I-168],3 fold
10,CC1CC(Nc2ccccc2)c2ccccc2N1C(=O)CCC1CCCCC1 (centres unmarked) [Compound I-170],1 fold
11,CCOC(=O)C(=O)N1c2ccccc2C(Nc2ccccc2)CC1C (centres unmarked) [Compound I-171],1 fold
12,CC1CC(Nc2ccccc2)c2ccccc2N1C(=O)c1ccc(NS(C)(=O)=O)cc1 (centres unmarked) [Compound I-175],5 fold
13,CC(C)C(=O)N1c2ccccc2C(N(C(=O)c2ccccc2)c2ccc([N+](=O)[O-])cc2)CC1C (centres unmarked) [Compound I-178],1 fold
14,CCC(=O)N1c2ccccc2C(N(C(=O)c2ccc([N+](=O)[O-])cc2)c2ccccc2)CC1C (centres unmarked) [Compound I-183],2 fold
15,Cc1ccc(C(=O)N2c3ccc(F)cc3C(N(C(=O)c3ccc(C)c(F)c3)c3ccc(F)cc3)CC2C)cc1F (centres unmarked) [Compound I-197],1 fold
